Results taken from patent publication US5304474A, “Hydrophobic peptide esters and amides” (Board of Regents, The University of Texas System, priority 1991, dated 1994).

Assays:
human dermal fibroblasts = test: 51Cr release toxicity assay
Procedure: (§2) In some experiments, toxicity of Leu-Leu-OMe for a variety of cell populations was assessed by ^51 Cr release In assays where cells obtained from suspension culture were to be used, cells were labeled with Na2^51 CrO4 (ICN, Plainview, N.Y.) for 60-90 minutes at 37° C. and then washed three times. Cells were then suspended in PBS (2.5×10^6 /ml) and incubated in microtiter plates, 50 microL/well with indicated concentrations of Leu-Leu-OMe for 15 minutes at room temperature. […] Following ^51 Cr labeling, wells were thoroughly washed and varying concentrations of Leu-Leu-OMe added in 50 microL PBS and the plates incubated for 15 minutes at room temperature.
(§3) Following such initial serum-free incubations, 200 microL/well of medium RPMI containing 10% FBS were added and the plates incubated for another 4 hours prior to removal of 100 microliters of supernatant. Radioactivity in the supernatant was measured in an auto-gamma scintillation spectrometer (Packard Instrument Co., Downers Grove, Ill.). The percent specific release was calculated from the formula: [formula] in which maximal release refers to cpm obtained in wells containing 50% lysing agent (American Scientific Products, McGraw Park, Ill.) and spontaneous release refers to cpm released by cells incubated in control medium in the absence of Leu-Leu-OMe or the lysing agent.

[1] = Activity and appearance of mice post-injection; type: in vivo, C3H/HeJ mice; conditions: 15-30 minutes post-injection, about 1×10^-3 moles per kg tail-vein
Procedure: (§1) Leu-Leu-OMe or Leu-Phe-OMe were suspended in PBS, pH 7.4. Then individual C3H/HeJ mice (25 gram size) were administered by tail-vein injection either 2.5×10^-5 moles (6.5 mg) of Leu-Leu-OMe, 2.5×10^-5 moles (7.1 mg) Leu-Phe-OMe, or an equal volume of the PBS diluent, this dose being about 1×10^-3 moles per kg. […] Subsequent to this quiescent period no difference in activity or appearance in the mice was noted. Two hours post-injection, the mice were sacrificed and their spleen cells were assayed for NK function in a standard 4 hour assay against YAC-1 tumor targets. In all mice, total cell recovery ranged […] spleen cells per animal. […] Thus, Leu-Leu-OMe or Leu-Phe-OMe caused a greater than 75% decrease in splenic lytic activity against YAC-1 tumor targets.

[2] = tested on: renal cell carcinoma line, Currie; test: 51Cr release toxicity assay
hemopoietic stem cells = test: Stem cell function: splenic 125I-UdR uptake 5 d after transfer into irradiated syngeneic recipients; type: in vivo, mice; conditions: 250 micro-M
Procedure: Bone marrow cells or marrow and spleen cell mixtures were incubated in PBS with or without 250 micro-M Leu-Leu-OMe as above and then infused into 950 cGy irradiated syngeneic recipients. 5 d later, splenic 5-iodo-2'-deoxyuridine-^125 I (^125 I-UdR) uptake was measured as previously described (15).
To assay the effects of Leu-Leu-OMe on hemopoietic stem cells, we incubated marrow or mixtures of marrow and spleen cells in PBS with or without Leu-Leu-OMe and measured splenic ^125 I-UdR uptake 5 d after transplantation into irradiated syngeneic recipients (18). […] Since human marrow obtained for use in transplantation has variable amounts of peripheral blood contamination, we also studied the stem cell function of a mixture of murine spleen and marrow incubated with Leu-Leu-OMe. […] Histological studies were conducted of spleens from irradiated mice. B6 mice were irradiated with 950 cGy and given no marrow (irradiation control), or given syngeneic bone marrow cells that had been incubated in PBS with or without 250 micro-M Leu-Leu-OMe. 5 d later spleens were examined histologically. Irradiation control spleens were sparsely populated, with no hemopoietic elements. Recipients of marrow treated with 250 micro-M Leu-Leu-OMe had the vast majority of their splenic red pulp packed with erythroblasts, but also had numerous peritrabecular areas containing megakaryocytes and granulocytic elements.

[3] = tested on: splenic NK function (YAC-1 tumor targets); test: Spleen cell NK function against YAC-1 after tail-vein injection; type: in vivo, C3H/HeJ mice
Procedure: as §1

CTL precursors = test: Elimination of cytotoxic T lymphocytes (6 day MLC, lysis of allogeneic stimulator lymphoblasts); type: cell-based, human
Procedure: Experiments were also designed to assess the relative sensitivity of NK and CTL to Leu-Leu-OMe. In the studies detailed in FIGS. 8 and 9, cytotoxicity assays were performed over a broad range of E:T ratios and units of lytic activity arising from equal numbers of responding lymphocytes were calculated and compared. […] Only after exposure to greater than 250 micromolar Leu-Leu-OMe were all CTL precursors eliminated.
Non-adherent lymphocytes (2.5×10^6 /ml) were incubated with the indicated concentrations of Leu-Leu-OMe for 15 minutes. Cells were then washed and either placed in mixed lymphocyte culture or assayed for specific lysis of K562 cells (NK). After 6 day MLC, cells were assayed for specific lysis of allogeneic stimulator lymphoblasts (CTL) or K562 (AcNK). Data are expressed as percent of control lytic units (mean+SEM, n=6).
Both values were also higher than the mean concentration of Leu-Leu-OMe required to diminish spontaneous NK lytic activity by 75% (35 micromolar±4 micromolar). […] Thus, only after MLC activation did CTL display a sensitivity to Leu-Leu-OMe toxicity that was equal to that of NK cells.

human erythrocytes (RBC) = test: 51Cr release from RBC incubated with peptide ester alone; type: cell-based; conditions: for ^51 Cr Release from RBC: Nil 410 + 12
Procedure: The following experiments were carried out to determine whether DPPI could generate a lytic product from Leu-Leu-OMe. In the experiment detailed in FIG. 12, ^51 Cr-labeled human erythrocytes (RBC) were incubated with varying concentrations of Leu-Leu-OMe alone or in the presence of purified bovine DPPI.

[4] = tested on: epidermal carcinoma line, HEp-2; test: 51Cr release toxicity assay
Procedure: as §2, §3

[5] = tested on: natural killer cells (NK); test: NK function: lysis of K562 target cells (51Cr release) after preincubation of lymphocytes with compound
[6] = tested on: human umbilical vein endothelial cells; test: 51Cr release toxicity assay
Procedure: as §2, §3

[7] = 100 micromolar, 15 minutes (FIG. 8)

## COC(=O)[C@H](CC(C)C)NC(=O)[C@@H](N)CC(C)C [Leu-Leu-OMe, L-leucyl-L-leucine methyl ester]
Human dermal fibroblasts
  51Cr release: no significant Leu-Leu-OMe induced ^51 Cr release
Human dermal fibroblasts; 500 micromolar
  subsequent proliferative capacity: had no discernible effect on subsequent proliferative capacity
[1]
  activity and appearance post-injection: exhibited decreased activity and an apparent increase in sleep
[2]
  51Cr release: no significant Leu-Leu-OMe induced ^51 Cr release
[2]; 500 micromolar
  subsequent proliferative capacity: had no discernible effect on subsequent proliferative capacity
[2]; Renal Cell Carcinoma
  Leu--Leu--OMe Sensitivity (LD50): > 500 micro-M
Hemopoietic stem cells
  effect on stem cell function, in words: had no deleterious effect on this measure of stem cell function
[3]; E:T 25:1, 2.5×10^-5 moles per mouse tail-vein, 2 hours post-injection, Control 8.29
  Percent lysis of target cells: 2.37%
[3]; E:T 50:1, same dosing, Control 12.88
  Percent lysis of target cells: 4.58%
[3]; E:T 100:1, same dosing, Control 20.60
  Percent lysis of target cells: 7.12%
[3]; E:T 200:1, same dosing, Control 29.29
  Percent lysis of target cells: 12.77%
[3]; about 1×10^-3 moles per kg tail-vein
  decrease in splenic lytic activity against YAC-1 tumor targets: greater than 75%
CTL precursors; [7]
  CTL precursors still present, of control levels: greater than 50%
CTL precursors; 15 minutes (FIG. 8)
  concentration above which all CTL precursors eliminated: greater than 250 micromolar
CTL precursors; after 6 day MLC, 15 minutes incubation (FIG. 9)
  sensitivity of CTL and AcNK following activation: became identical in sensitivity to Leu-Leu-OMe
CTL precursors; elimination of CTL precursors
  mean concentration required to diminish lytic activity by 75%: 123 ± 25 µM
Human erythrocytes (RBC); 100 micro-M
  ^51 Cr Release from RBC: 400 + 27
Human erythrocytes (RBC); 500 micro-M
  ^51 Cr Release from RBC: 482 + 57
Human erythrocytes (RBC); 2500 micro-M
  ^51 Cr Release from RBC: 482 + 121
Human erythrocytes (RBC); no DPPI
  damage to RBC by compound alone, in words: results in no damage to RBC
[4]
  51Cr release: no significant Leu-Leu-OMe induced ^51 Cr release
[4]; 500 micromolar
  subsequent proliferative capacity: had no discernible effect on subsequent proliferative capacity
[5]; 12.50 micro-M, Nil 66 (Table 14)
  NK Function % Specific Lysis K562: 60%
[5]; 25.00 micro-M, Nil 66 (Table 14)
  NK Function % Specific Lysis K562: 12%
[5]; 50 micro-M, Nil 40.8 (Table 16)
  NK Function % Specific Lysis K562: 1.1%
[5]; 50.00 micro-M, Nil 66 (Table 14)
  NK Function % Specific Lysis K562: 2%
[5]; 100.00 micro-M, Nil 66 (Table 14)
  NK Function % Specific Lysis K562: < 1%
[5]; [7]
  spontaneous NK lytic units: totally eliminated
[5]; MP-depleted lymphocytes
  concentration resulting in loss of K562 target binding and complete depletion of Leu 11b stained cells: greater than 50 micromolar
[5]; MP-depleted lymphocytes, 15 minutes room temperature (FIG. 4)
  concentration above which no NK function could be detected: greater than 50 micromolar
[5]; NK Cells
  Leu--Leu--OMe Sensitivity (LD50): 35 micro-M
[5]; antibody staining (FIG. 6) and functional studies (FIG. 4)
  concentration causing maximal depletion of NK: 100 µM
[5]; concentration which results in 50% loss of human NK function, PBL 15 minutes at 22° C.
  NK Toxicity (LD50): 35 micro-M
[5]; lymphocytes exposed 15 minutes at room temperature
  concentration in excess of which NK toxic effects are seen: > 12.5 micro-M
[5]; spontaneous NK
  mean concentration required to diminish lytic activity by 75%: 35 µM
[6]
  51Cr release: no significant Leu-Leu-OMe induced ^51 Cr release
[6]; 500 micromolar
  subsequent proliferative capacity: had no discernible effect on subsequent proliferative capacity
[6]; Endothelial Cells
  Leu--Leu--OMe Sensitivity (LD50): > 500 micro-M
